Measured values from PubChem BioAssay (NCI).
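Each compound was tested at five concentrations against cells in 96-well plates for 48 hours. TGI marks complete inhibition of growth.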

Assays:
Assay in all cases: DTP human tumour cell line panel, 48 h
SNB-19 CNS = test system: SNB-19 CNS
SF-268 CNS = test system: SF-268 CNS
HCT-116 colon = test system: HCT-116 colon
UACC-257 melanoma = test system: UACC-257 melanoma
OVCAR-5 ovarian = test system: OVCAR-5 ovarian
DU-145 prostate = test system: DU-145 prostate
OVCAR-3 ovarian = test system: OVCAR-3 ovarian
A549 NSCLC = test system: A549 NSCLC
HCC-2998 colon = test system: HCC-2998 colon
OVCAR-8 ovarian = test system: OVCAR-8 ovarian
MDA-MB-231 breast = test system: MDA-MB-231 breast
MCF7 breast = test system: MCF7 breast
NCI-H23 lung = test system: NCI-H23 lung
NCI/ADR-RES ovarian = test system: NCI/ADR-RES ovarian
RXF 393 renal = test system: RXF 393 renal
MDA-MB-435 = test system: MDA-MB-435
TK-10 renal = test system: TK-10 renal
SN12C renal = test system: SN12C renal
UO-31 renal = test system: UO-31 renal
SF-295 CNS = test system: SF-295 CNS
NCI-H460 lung = test system: NCI-H460 lung
K-562 leukemia = test system: K-562 leukemia
786-0 renal = test system: 786-0 renal
HS 578T breast = test system: HS 578T breast
ACHN renal = test system: ACHN renal
BT-549 breast = test system: BT-549 breast
KM12 colon = test system: KM12 colon
SK-OV-3 ovarian = test system: SK-OV-3 ovarian
LOX IMVI melanoma = test system: LOX IMVI melanoma
HT29 colon = test system: HT29 colon
SK-MEL-28 melanoma = test system: SK-MEL-28 melanoma
MOLT-4 leukemia = test system: MOLT-4 leukemia
UACC-62 melanoma = test system: UACC-62 melanoma
MDA-N = test system: MDA-N
SW-620 colon = test system: SW-620 colon
NCI-H226 lung = test system: NCI-H226 lung
SK-MEL-5 melanoma = test system: SK-MEL-5 melanoma
IGROV1 ovarian = test system: IGROV1 ovarian
PC-3 prostate = test system: PC-3 prostate
HL-60(TB) leukemia = test system: HL-60(TB) leukemia
SR leukemia = test system: SR leukemia
CAKI-1 renal = test system: CAKI-1 renal
HCT-15 colon = test system: HCT-15 colon
CCRF-CEM leukemia = test system: CCRF-CEM leukemia
HOP-62 NSCLC = test system: HOP-62 NSCLC
EKVX NSCLC = test system: EKVX NSCLC
SNB-75 CNS = test system: SNB-75 CNS
SK-MEL-2 melanoma = test system: SK-MEL-2 melanoma
RPMI-8226 leukemia = test system: RPMI-8226 leukemia
A498 renal = test system: A498 renal
COLO 205 colon = test system: COLO 205 colon
OVCAR-4 ovarian = test system: OVCAR-4 ovarian
M14 melanoma = test system: M14 melanoma
T-47D breast = test system: T-47D breast
U251 CNS = test system: U251 CNS
SF-539 CNS = test system: SF-539 CNS
NCI-H522 lung = test system: NCI-H522 lung
MALME-3M melanoma = test system: MALME-3M melanoma

## CC(C)(C)[Si](C)(C)OC1(CCc2ccccc2OS(=O)(=O)C(F)(F)F)CCCC=C1COCc1ccccc1 (centres undefined)
SNB-19 CNS
  TGI: > 100 µM
SF-268 CNS
  TGI: > 100 µM
HCT-116 colon
  TGI: > 100 µM
UACC-257 melanoma
  TGI: > 100 µM
OVCAR-5 ovarian
  TGI: > 100 µM
DU-145 prostate
  TGI: > 100 µM
OVCAR-3 ovarian
  TGI: > 100 µM
A549 NSCLC
  TGI: > 100 µM
HCC-2998 colon
  TGI: > 100 µM
OVCAR-8 ovarian
  TGI: > 100 µM
MDA-MB-231 breast
  TGI: > 100 µM
MCF7 breast
  TGI: > 54.8 µM
NCI-H23 lung
  TGI: > 100 µM
NCI/ADR-RES ovarian
  TGI: > 100 µM
RXF 393 renal
  TGI: 90.8 µM
MDA-MB-435
  TGI: > 100 µM
TK-10 renal
  TGI: > 100 µM
SN12C renal
  TGI: > 100 µM
UO-31 renal
  TGI: > 100 µM
SF-295 CNS
  TGI: > 100 µM
NCI-H460 lung
  TGI: > 100 µM
K-562 leukemia
  TGI: > 100 µM
786-0 renal
  TGI: > 100 µM
HS 578T breast
  TGI: > 100 µM
ACHN renal
  TGI: > 50.9 µM
BT-549 breast
  TGI: > 100 µM
KM12 colon
  TGI: > 100 µM
SK-OV-3 ovarian
  TGI: > 100 µM
LOX IMVI melanoma
  TGI: > 100 µM
HT29 colon
  TGI: > 100 µM
SK-MEL-28 melanoma
  TGI: > 100 µM
MOLT-4 leukemia
  TGI: > 62.3 µM
UACC-62 melanoma
  TGI: > 53 µM
MDA-N
  TGI: > 100 µM
SW-620 colon
  TGI: > 100 µM
NCI-H226 lung
  TGI: > 100 µM
SK-MEL-5 melanoma
  TGI: > 100 µM
IGROV1 ovarian
  TGI: > 100 µM
PC-3 prostate
  TGI: > 100 µM
HL-60(TB) leukemia
  TGI: > 55.3 µM
SR leukemia
  TGI: > 100 µM
CAKI-1 renal
  TGI: > 100 µM
HCT-15 colon
  TGI: > 100 µM
CCRF-CEM leukemia
  TGI: > 76.4 µM
HOP-62 NSCLC
  TGI: > 100 µM
EKVX NSCLC
  TGI: > 100 µM
SNB-75 CNS
  TGI: > 100 µM
SK-MEL-2 melanoma
  TGI: > 100 µM
RPMI-8226 leukemia
  TGI: > 52.7 µM
A498 renal
  TGI: > 100 µM
COLO 205 colon
  TGI: > 100 µM
OVCAR-4 ovarian
  TGI: > 100 µM
M14 melanoma
  TGI: > 100 µM
T-47D breast
  TGI: > 100 µM
U251 CNS
  TGI: > 100 µM
SF-539 CNS
  TGI: > 100 µM

## C=CCOC1=C(OC(C)=O)C(=O)OC1C1COC(C)(C)O1 (centres undefined)
SNB-19 CNS
  TGI: > 100 µM
SF-268 CNS
  TGI: > 100 µM
HCT-116 colon
  TGI: > 65.2 µM
UACC-257 melanoma
  TGI: > 100 µM
OVCAR-5 ovarian
  TGI: > 100 µM
DU-145 prostate
  TGI: > 100 µM
OVCAR-3 ovarian
  TGI: 31.4 µM
A549 NSCLC
  TGI: > 100 µM
NCI-H522 lung
  TGI: 34.6 µM
HCC-2998 colon
  TGI: > 100 µM
OVCAR-8 ovarian
  TGI: > 84.6 µM
MDA-MB-231 breast
  TGI: > 100 µM
MCF7 breast
  TGI: > 66.4 µM
NCI-H23 lung
  TGI: > 83.2 µM
NCI/ADR-RES ovarian
  TGI: > 100 µM
RXF 393 renal
  TGI: > 56.5 µM
MALME-3M melanoma
  TGI: 57.1 µM
MDA-MB-435
  TGI: > 74 µM
TK-10 renal
  TGI: > 100 µM
SN12C renal
  TGI: > 68.7 µM
UO-31 renal
  TGI: > 79.4 µM
SF-295 CNS
  TGI: > 100 µM
NCI-H460 lung
  TGI: > 100 µM
K-562 leukemia
  TGI: > 56.5 µM
786-0 renal
  TGI: > 60.7 µM
HS 578T breast
  TGI: > 100 µM
ACHN renal
  TGI: 46.6 µM
BT-549 breast
  TGI: > 88.2 µM
KM12 colon
  TGI: > 65.6 µM
SK-OV-3 ovarian
  TGI: > 100 µM
LOX IMVI melanoma
  TGI: 33.2 µM
HT29 colon
  TGI: > 83.2 µM
SK-MEL-28 melanoma
  TGI: 31.9 µM
MOLT-4 leukemia
  TGI: 45.7 µM
UACC-62 melanoma
  TGI: > 100 µM
MDA-N
  TGI: > 100 µM
SW-620 colon
  TGI: > 59.7 µM
NCI-H226 lung
  TGI: > 100 µM
SK-MEL-5 melanoma
  TGI: > 100 µM
IGROV1 ovarian
  TGI: > 100 µM
PC-3 prostate
  TGI: > 100 µM
HL-60(TB) leukemia
  TGI: > 60.8 µM
SR leukemia
  TGI: 9.02 µM
CAKI-1 renal
  TGI: > 57.1 µM
HCT-15 colon
  TGI: 46.2 µM
CCRF-CEM leukemia
  TGI: > 60.4 µM
HOP-62 NSCLC
  TGI: > 100 µM
EKVX NSCLC
  TGI: > 68 µM
SNB-75 CNS
  TGI: > 71.3 µM
SK-MEL-2 melanoma
  TGI: 98.9 µM
RPMI-8226 leukemia
  TGI: > 100 µM
A498 renal
  TGI: > 100 µM
COLO 205 colon
  TGI: > 58.9 µM
OVCAR-4 ovarian
  TGI: 32.1 µM
M14 melanoma
  TGI: > 80.7 µM
T-47D breast
  TGI: > 63.7 µM
U251 CNS
  TGI: > 100 µM
SF-539 CNS
  TGI: > 74.8 µM
